Data reported in patent US5578643A, “Protective prostaglandins for use in conjunction with chemotherapeutic agents” (Loyola University of Chicago, priority 1994, dated 1996).

Key:
[1] = tested on: mice given 5-fluorouracil; test: Survival of mice after 12.5 mg of 5-fluorouracil, with or without prior misoprostol; type: in vivo; details: 40 μg misoprostol 2 hours before 12.5 mg of 5-fluorouracil; FIG. 4
Protocol: The toxicity of 12.5 mg of 5-fluorouracil alone to mice and the effectiveness of 40 μg of misoprostol given 2 hours prior to administration of 5-fluorouracil to protect from death due to 5-fluorouracil is shown in FIG. 4.

[2] = tested on: white blood cells (WBCs) in the peripheral circulation; test: WBC counts and differential counts in peripheral blood of DOX treated mice; type: in vivo
Protocol: FIG. 7 is a graph illustrating the protective effect of misoprostol (given 2 hours before doxorubicin) on WBC counts compared to the effect of doxorubicin alone on WBC counts as function of time (in days). (The numbers 1 and 2 are duplicate studies.)
Death within 15 days of DOX treatment alone is most likely associated with bone marrow injury. […] DOX, therefore, appears to not only reduce the total WBC, but has a particularly marked effect on lymphocytes.

[3] = tested on: mice given doxorubicin (DOX); test: Survival of mice (percent survival over 15 days) after doxorubicin, with or without prior prostaglandin; details: n=16
Protocol: FIG. 1 is a graph illustrating percent survival of mice over 15 days as a function of the time interval (in hours) between the administration of misoprostol and the subsequent administration of doxorubicin. (The two curves represent duplicate experiments; 12 animals per experiment.)
FIG. 2 is a graph illustrating the percent survival of mice over 15 days following the administration of 0.5 mg of doxorubicin (open circles) and mice given 40 μg of misoprostol 2 hours before administration of 0.5 mg of doxorubicin (filled circles). (N=16 for each group).
FIG. 3 is a graph illustrating the percent survival of mice over 15 days following the administration of 0.75 mg of doxorubicin (open circles) and mice given 40 μg of misoprostol 2 hours before administration of 0.75 mg of doxorubicin (filled circles). (N=16 for each group).
Mortality of mice is a measure of PG-induced protection from death due to severe normal tissue injury inflicted by chemotherapy agents.
This assay was accomplished by injecting intraperitoneally (IP) separate groups of mice with a range of doses of chemotherapeutic agents. […] In some groups of mice, longevity was recorded by plotting the number of animals remaining alive (percent survival) versus time following the administration of the chemotherapeutic agent.
PG-induced protection from the toxic chemotherapeutic agents was measured by subcutaneous (SC) injection of the PG at various times prior to or after the IP administration of the chemotherapeutic agent. […] The time interval was varied from 15 minutes to 5 hours. The two curves represent two separate experiments with 20 mice in each experiment. The "0" time point is the percentage of mice that survived 15 days after administration of doxorubicin alone.

[4] = tested on: mice given graded doses of doxorubicin (DOX); test: DOX dose response: dose killing 50% of the mice within 15 days, alone or after PG or WR-2721; type: in vivo; details: 40 μg misoprostol SC 2 hours before graded doses of DOX; death within 15 days; FIG. 5
Protocol: The open triangle is data of a group of 10 mice given WR-2721, 30 minutes before administration of 0.75 mg of doxorubicin. (The lines are computer fit spline curves through the data; n=24 per data point on each curve).
(The lines are computer fit spline curves through the data; n=8 per data point for each of the PG-treated groups and n=24 for the data points of mice treated only with doxorubicin).
It was observed that all acute deaths due to DOX treatment alone occurred before day 15 following DOX administration. Subsequently, the parameter of death within 15 days was used to investigate the DOX dose response administered IP alone or 2 hours after 40 μg of misoprostol was given subcutaneously (sc). In this study, a dose of about 0.5 mg of DOX/average 30 gram mouse, killed 50% of the DOX treated mice (see FIG. 5).
A comparison of PG-induced protection was made to that of protection by WR-2721; an agent reported to protect from some chemotherapeutic agents. […] Two other PGs representing different structural prostaglandins than misoprostol were also investigated for their effectiveness in protecting mice from mortality resulting from administration of graded doses of DOX.

hair medullary cells = test: Number of hair medullary cells four days after a single dose of chemotherapeutic agent, with or without misoprostol; type: in vivo, CF1 mice
Protocol: FIG. 13 is a representation of photographs of shafts of hair showing a single line of medullary cells in control mice (Panel A) and in mice 4 days after they were given a single dose of 0.3 mg of VP-16-213 (Panel B).
Number of Hair Medullary Cells as a Measure of Protection from Injury caused by Chemotherapeutic Agents.
The shafts of hair in CF1 mice contain usually a single line of about 50±1 medullary cells. These cells are very sensitive to cytotoxic agents (see Potten, C. S., Geng, L., and Taylor, P., Hair Medullary Cell Counts: a Simple and Sensitive Indicator of Radiation Exposure. Int. J Radiat. Biol., 57:13-21, 1990). Single doses of cytotoxic chemotherapeutic agents greatly reduce the number of medullary cells which reach a nadir at 4 days after administration of the agent. This cell system has been used for the evaluation of misoprostol-induced protection from several chemotherapeutic agents.
CF1 mice had hair from an area of their rump plucked to induce anagen growth as described in Example 2 above. […] In separate groups, mice received misoprostol (40 μg/average 30 g mouse) either subcutaneously or applied topically 2 hours before each of the chemotherapeutic agents listed above. Untreated controls were used since it has been previously determined that water, or 2% EtOH in water, or phosphate buffer at pH=6.8 (the vehicles for the all agents used) had no influence on the cell counts compared to untreated controls. Twenty-five hairs from each animal of each group were dissected from Feulgen stained samples taken from the mice 4 days after treatment.
The number of medullary cells was averaged (n=4) for each treatment group and the results for all chemotherapeutic agents tested to date are presented in Table I.

hair follicles = test: Hair count / hair loss (alopecia) caused by chemotherapeutic agents, 5 daily treatments; type: in vivo, mice; details: 5 days
Protocol: Panel C is a representation of a photomicrograph of an animal given 40 μg of misoprostol, 2 hours before the 0.1 mg daily dose of doxorubicin given each day for 5 days.
(Data are the means of 6 mice (2 fields/mouse)±1 SEM.)
Amount of Hair Loss as a Measure of PG-induced Protection from Alopecia caused by Chemotherapeutic Agents.
One of the side effects of chemotherapy in cancer patients is hair loss or alopecia. Studies were conducted to measure a possible protective effect of PGs from alopecia caused by chemotherapeutic agents. […] The hairs on the rumps of mice (n=4/group) were plucked to induce a growth or anagen cycle within hair follicles which continues for about 18 days. […] Control groups (n=4) received no treatment or misoprostol alone.

In the case of CCCCC(C)(O)C/C=C/[C@H]1[C@H](O)CC(=O)[C@@H]1CCCCCCC(=O)OC (mixture of isomers) [misoprostol, (±)(16RS)-15-deoxy-16-hydroxy-16-methyl prostaglandin E1, methyl ester], the “protection of mice from death due to 5-fluorouracil” value [1] is reported as “effective in protecting mice from damaging effects of 5-fluorouracil”, the “percentage of lymphocytes, misoprostol before DOX” value ([2]; 40 μg of misoprostol 2 hours before 0.5 mg of DOX, differential counts of peripheral blood) is reported as “greater than 30%” and the “WBC counts, misoprostol before DOX” value ([2]; misoprostol 40 μg/30 gram mouse 2 hours before DOX (0.5 mg/30 gram mouse), FIG. 7) is reported as “remained near control levels”. For the same compound, the “percent still alive by day 15, misoprostol before DOX” value ([3]; 40 μg misoprostol 2 hours before 0.75 mg of DOX, FIG. 3) was “about 85%”, the “percent survival after 15 days, misoprostol before DOX” value ([3]; 40 μg misoprostol SC 2 hours before 0.5 mg of doxorubicin, FIG. 2) was 100% and the “DOX dose required to kill 50% of the population of mice, after misoprostol” value [4] was “about 1.0 mg of DOX/average 30 gram mouse”. The “Number of Medullar Cells ± 1 SEM, misoprostol subcutaneously” value (hair medullary cells; 40 μg SC 2 hrs before 5 FU (1.0 mg)) was 37.4 ± 5.0, the “Number of Medullar Cells ± 1 SEM, misoprostol subcutaneously” value (hair medullary cells; 40 μg SC 2 hrs before ARA-C (8 mg)) was 40.1 ± 0.7 and the “Number of Medullar Cells ± 1 SEM, misoprostol subcutaneously” value (hair medullary cells; 40 μg SC 2 hrs before Bleomycin (0.05 mg)) was 27.9 ± 1.2. The “Number of Medullar Cells ± 1 SEM, misoprostol subcutaneously” value (hair medullary cells; 40 μg SC 2 hrs before CTX (1 mg)) was 33.1 ± 1.3, the “Number of Medullar Cells ± 1 SEM, misoprostol subcutaneously” value (hair medullary cells; 40 μg SC 2 hrs before Carboplatin (1.0 mg)) was 31.2 ± 2.4 and the “Number of Medullar Cells ± 1 SEM, misoprostol subcutaneously” value (hair medullary cells; 40 μg SC 2 hrs before Cisplatin (0.25 mg)) was 14.3 ± 0.4. For the same compound, the “Number of Medullar Cells ± 1 SEM, misoprostol subcutaneously” value (hair medullary cells; 40 μg SC 2 hrs before DOX (0.3 mg)) was 30.0 ± 1.1, the “Number of Medullar Cells ± 1 SEM, misoprostol subcutaneously” value (hair medullary cells; 40 μg SC 2 hrs before HU (10 mg)) was 38.9 ± 0.7 and the “Number of Medullar Cells ± 1 SEM, misoprostol subcutaneously” value (hair medullary cells; 40 μg SC 2 hrs before Methotrexate (0.2 mg)) was 50.6 ± 0.6. For the same compound, the “Number of Medullar Cells ± 1 SEM, misoprostol subcutaneously” value (hair medullary cells; 40 μg SC 2 hrs before Mitomycin C (0.01 mg)) was 38.2 ± 1.9, the “Number of Medullar Cells ± 1 SEM, misoprostol subcutaneously” value (hair medullary cells; 40 μg SC 2 hrs before Taxol (0.6 mg)) was 26.0 ± 3.5 and the “Number of Medullar Cells ± 1 SEM, misoprostol subcutaneously” value (hair medullary cells; 40 μg SC 2 hrs before VP-16-213 (0.3 mg)) was 34.4 ± 1.1. The “Number of Medullar Cells ± 1 SEM, misoprostol topical” value (hair medullary cells; 40 μg topical 2 hrs before ARA-C (8 mg)) was 43.1 ± 1.7, the “Number of Medullar Cells ± 1 SEM, misoprostol topical” value (hair medullary cells; 40 μg topical 2 hrs before Bleomycin (0.05 mg)) was 28.1 ± 1.0 and the “Number of Medullar Cells ± 1 SEM, misoprostol topical” value (hair medullary cells; 40 μg topical 2 hrs before CTX (1 mg)) was 31.5 ± 2.2. For the same compound, the “Number of Medullar Cells ± 1 SEM, misoprostol topical” value (hair medullary cells; 40 μg topical 2 hrs before DOX (0.3 mg)) was 27.0 ± 1.3, the “Number of Medullar Cells ± 1 SEM, misoprostol topical” value (hair medullary cells; 40 μg topical 2 hrs before HU (10 mg)) was 40.7 ± 1.0 and the “Number of Medullar Cells ± 1 SEM, misoprostol topical” value (hair medullary cells; 40 μg topical 2 hrs before Methotrexate (0.2 mg)) was 46.7 ± 2.2. The “Number of Medullar Cells ± 1 SEM, misoprostol topical” value (hair medullary cells; 40 μg topical 2 hrs before VP-16-213 (0.3 mg)) was 33.0 ± 1.6, the “lack of protection of medullary cells” value (hair medullary cells; ARA-C, bleomycin, HU (misoprostol given systemically), cisplatin, carboplatin or 5-FU treated mice) was “did not protect medullary cells” and the “number of hairs, misoprostol + DOX” value (hair follicles; 40 μg misoprostol SC 2 hours before each daily 0.1 mg DOX, FIG. 9) was 213±7.8 hairs per 4.42 sq. mm. The “number of hairs, misoprostol + CTX” value (hair follicles; 40 μg misoprostol SC 2 hours before each daily 1.0 mg cytoxan, FIG. 10) was 222+5.5 hairs per 4.42 sq. mm.
